Laboratory results reported in patent publication US20120329794A1, “Ab1 KINASE INHIBITORS” (Kyowa Hakko Kirin Co., Ltd., priority 2006, published 2012).

molecular target: T1, Abl(T315I) protein (Homo sapiens, UniProt P00519, T315I); assay: Abl T315I inhibitory activity (radiometric kinase assay); format: biochemical; settings: 1 μmol/L test compound
T1 construct: purchased Upstate 14-522
Method: In order to measure Abl T315I inhibitory activity, the following method was used: A reaction solution was prepared so that the final concentrations in a volume of 25 μL were 5 to 10 mU of Abl(T315I) protein (Upstate, catalog No. 14-522), 8 mmol/L of 3-morpholinopropane sulfonic acid (pH 7.0), 0.2 mmol/L of, EDTA, 50 μmol/L of EAIYAAPFAKKK, 10 mmol/L of Mg acetate, [γ-^33P-ATP] (500 cpm/pmol), 0.1% of dimethyl sulfoxide (DMSO), and 1 μmol/L of test compound, followed by enzyme reaction at room temperature for 40 minutes. The reaction was terminated with 5 μL of a 3% aqueous phosphoric acid solution, and the reaction solution was added to a P30 filter mat. Then, the filter was washed with a 75 mmol/L aqueous phosphoric acid solution three times and 100% methanol once, and then dried. Then, the radioactivity of the filter was measured.
Assuming that a measured value of an enzyme to which 0.1% of DMSO was added was 100%, and a measured value of a sample to which an enzyme was not added was 0%, the relative activity (%) of radioactivity of a sample to which the test compound was added was calculated, and a value obtained by subtracting the calculated value from 100 was considered as Abl T315I inhibitory activity (%) of the test compound.

inhibition at 1 µM | SMILES
≥ 90% | Nc1cc(/C=C/c2n[nH]c3ccccc23)ccc1OCCN1CCOCC1 [Compound 4]
≥ 90% | CC(=O)N1CCN(C(=O)c2ccc(/C=C/c3n[nH]c4ccccc34)cc2)CC1 [Compound 6]
≥ 90% | COCC(=O)N1CCN(C(=O)c2ccc(/C=C/c3n[nH]c4ccccc34)cc2)CC1 [Compound 7]
